Test [1] addresses T1, sChoK (S. pneumoniae isoform of choline kinase, LicA) (Streptococcus pneumoniae, UniProt Q8DPI4).
T1 construct: gene pck; ChoK activity measured in cell extracts
T1 sequence (Q8DPI4 1-289): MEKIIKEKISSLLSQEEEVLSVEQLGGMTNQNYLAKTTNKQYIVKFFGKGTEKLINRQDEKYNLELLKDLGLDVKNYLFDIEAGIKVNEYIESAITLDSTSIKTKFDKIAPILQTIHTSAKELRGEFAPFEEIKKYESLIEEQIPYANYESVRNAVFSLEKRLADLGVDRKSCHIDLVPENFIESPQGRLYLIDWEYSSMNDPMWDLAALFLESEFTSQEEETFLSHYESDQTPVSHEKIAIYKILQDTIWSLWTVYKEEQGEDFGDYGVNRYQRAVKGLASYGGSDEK
Briefly: sChoK activity inhibition (authors' earlier work). The settings on record: authors' own earlier result (Zimmerman and Ibrahim 2017), restated here; cited from earlier work. Type of test: biochemical. From the text:
sChoK activity inhibition (authors' earlier work) on sChoK (S. pneumoniae isoform of choline kinase, LicA)

In test [2] the target is T1, sChoK (S. pneumoniae isoform of choline kinase, LicA). Briefly: colorimetric ChoK activity assay in cell extracts. Format: biochemical. From the text: colorimetric ChoK activity assay in cell extracts on sChoK (S. pneumoniae isoform of choline kinase, LicA)

Molecules are shown by their SMILES. A value given as a limit tells only on which side of the number the result lay.

Regarding `C[N+]1(C)CCOC(O)(c2ccc(-c3ccc(C4(O)C[N+](C)(C)CCO4)cc3)cc2)C1` (stereo not drawn) [HC-3], the IC50 in test [1] was over 2700 µM.

`CN(C)c1cc[n+](Cc2ccc(CCCCc3ccc(C[n+]4ccc(N(C)C)cc4)cc3)cc2)cc1` [MN58b] came in with an IC50 in test [2] of 197 µM.

Molecule `CN(c1ccc(Cl)cc1)c1cc[n+](Cc2ccc(-c3ccc(C[n+]4ccc(N(C)c5ccc(Cl)cc5)c5ccccc54)cc3)cc2)c2ccccc12` [RSM-932A] displayed an IC50 in test [2] of 0.5 µM.

(Values after article PMC6813931, “Choline Kinase Emerges as a Promising Drug Target in Gram-Positive Bacteria” (Frontiers in Microbiology, 2019).)
